Read-outs that look alike come from different tables or passages of the source.
Test system: splenocytes from naïve C57BI/6 mice
Type: cell-based
Settings: naïve splenocytes plus RMA-S pulsed with 10 uM peptide, IL-2 added after 4 days

KAVYNFATM [non-nitrated LCMV gp33 peptide]
outgrowth of CD8^+ T cells: not | outgrowth of CD8^+ T cells (listed as conventional gp33-41 peptide): not observed

Source: patent US20040202647A1, “Compositions and methods related to nitrotyrosine - containing compounds as antigenic agents” (priority 2002, published 2004)
